# From patent US6043283A, “Tyramine compounds and their neuronal effects” (priority 1997, dated 2000)
# Entries after “also recorded” stand apart in the source; their conditions may differ.
# Tested on: Aβ1-42-stimulated microglia
# Assay: not given
# Type: cell-based, rat
# Conditions: 0.01 to 100 μM; FIG. 11
# Excerpt: Briefly, hippocampal cells obtained from embryonic stage 18 rat fetuses were dispersed mechanically in the presence of 0.125% trypsin and plated onto poly-L-lysine coated glass coverslips in 24 well plates at 250,000 cells per well (resulting in adhering cell densities of about 1250 cells per mm^2) in chemically-defined N2 culture media containing 5% fetal bovine serum. Gradual reduction of serum began on day 10 in vitro with daily 1:1 volume replacements with chemically-defined media, until a final concentration of 0.6% serum was achieved. […] In order to eliminate microglia, cultures were exposed to saporin (sap; a ribosome-inactivating protein; Davis and Wiley, 1989) coupled to acetylated LDL (ac-LDL) at a concentration of 10 μg/ml for 12 hours. […] Cultures depleted of microglia were then exposed to test substances in the presence or absence of exogenous microglia (100,000 cells per culture). […] Controls included cultures without saporin-treatment, cultures without test substances, and cultures with test substances but lacking microglia.
# (§1) On day 14 of culture, immediately following saporin treatment, test substances were added to the hippocampal cultures. Synthetic peptide were supplied as 1 mM stock solutions in 0.1 M phosphate buffered saline, pH 7.2, stored for at least 1 week at 4° C. before use. After 72 hours incubation, the cultures were fixed in 4% paraformaldehyde at room temperature for 18 hours and immuno-stained by overnight incubation with a mixture of anti-neurofilament antibodies (NF; SMI-311, 1:600; Stemberger Monoclonals, Inc.) plus anti-MAP-2 (Boehringer Mannheim, 184959; 1:600) at 4° C. in the presence of 2% horse serum and 0.3% triton X-100 to delineate both neuronal cell bodies and neurites. Astroglia were visualized using sheep anti-glial fibrillary acidic protein (GFAP, Sigma) as described by Giulian et al., 1989. Finally, to label all cell nuclei, the coverslips were exposed to 0.01% bisbenzimide (Hoechst 33258; Sigma) in PBS, pH 6.9, and rinsed in distilled water and mounted in glycerin. Immuno-labeled cells per field and nuclei per field were scored at 200X magnification using fluorescence microscopy. Data were expressed as % mean survival expressed in terms of parallel untreated control cultures after scoring at least 20 randomly selected fields for each of 3 coverslips.
row,Molecule,effect of signal transduction inhibitors on microglia stimulated by Aβ1-42
1,COc1c(C=O)c(O)cc2c1C(=O)c1ccccc1C2=O [damacanthal],had a protective effect
2,O=c1c(-c2ccc(O)cc2)coc2cc(O)cc(O)c12 [genistein],had a protective effect

# Same assay, conditions: 0.1 to 10 μM; FIG. 10
row,Molecule,effect of immunosuppressive drugs on microglia stimulated by Aβ1-42
1,CCN(CC)CCCC(C)Nc1ccnc2cc(Cl)ccc12 (stereo not drawn) [chloroquine],had a protective effect; also recorded: inhibit neuron killing

# Tested on: rat microglia
# Assay: binding of Aβ-coupled microspheres to microglia
# Conditions: 4 hours at 37° C. (72 h in FIG. 23)
row,Molecule,binding of peptide-coupled microspheres to microglia
1,"Aβ10-42: Aβ peptide residues 10-42 (YEVHHQKLVFFAEDVGSNKGAIIGLMVGGVVIA; Amyloid-beta protein 42; UniProt P05067 681-713, looked up, fragment)",bound to microglia

# Tested on: NTox released by Aβ1-42-stimulated microglia (neuron killing)
# Assay: cells
# Type: cell-based, rat
# Conditions: not given
# Excerpt: . Briefly, hippocampal cells obtained from embryonic stage 18 rat fetuses were dispersed mechanically in the presence of 0.125% trypsin and plated onto poly-L-lysine coated glass coverslips in 24 well plates at 250,000 cells per well (resulting in adhering cell densities of about 1250 cells per mm^2) in chemically-defined N2 culture media containing 5% fetal bovine serum. Gradual reduction of serum began on day 10 in vitro with daily 1:1 volume replacements with chemically-defined media, until a final concentration of 0.6% serum was achieved. […]; see FIG. 18). In order to eliminate microglia, cultures were exposed to saporin (sap; a ribosome-inactivating protein; Davis and Wiley, 1989) coupled to acetylated LDL (ac-LDL) at a concentration of 10 μg/ml for 12 hours. […] Cultures depleted of microglia were then exposed to test substances in the presence or absence of exogenous microglia (100,000 cells per culture). […]. Controls included cultures without saporin-treatment, cultures without test substances, and cultures with test substances but lacking microglia.
# as §1
# The procedures described above and by Giulian et al, 1996, provided for the identification of tyramine compounds as therapeutic agents for neurodegenerative diseases or disorders including, for example, Alzheimer's disease. Cells from the brain of fetal rats were grown in tissue cultures. Microglial populations within the cultures were controlled following the method described in Example 5 above. Known amounts of Aβ peptides coupled to microspheres were added to the culture. The Aβ spheres stimulated the microglia to release NTox, which in turn destroyed the neurons. The neurons in the cultures were monitored for survival by immuno-staining.
# Generally, drug assays involve the addition of known concentrations of a test agent over a range of concentrations. After 72 hours, the experiment is stopped and the neurons are identified by immuno-staining. The data is expressed as % neuronal survival […]. Dose response curves are then used to estimate Effective Dose50 % (ED50) of neuroprotective agents. […].
# In this experiment, about 65% of the neurons were destroyed by the Aβ-stimulated microglia. […] Other tyramine compounds, including tyrosine esters, were neuroprotective (FIG. 30).
# Following the methods described herein, numerous compounds were examined to determine their neuroprotective activity. […]
row,Molecule,neuroprotective activity (structure/function)
1,CC(=O)NCCc1ccc(O)cc1 [acetylated tyramine],little or no neuroprotective activity
2,NCCc1ccc(O)c(O)c1 [dopamine],little or no neuroprotective activity
3,CNC[C@H](O)c1ccc(O)c(O)c1 [epinephrine],little or no neuroprotective activity

# Same assay, conditions: 10 μM; 72 hours; FIG. 30
row,Molecule,protective effect
1,C=CCOC(=O)[C@@H](N)Cc1ccc(O)cc1 [tyrosine allyl ester],neuron survival was markedly enhanced
2,N[C@@H](Cc1ccc(O)cc1)C(=O)O [tyrosine],no protective effect
3,tyrosine butyl ester,neuron survival was markedly enhanced

# Same assay, conditions: Aβ1-42-stimulated microglia
row,Molecule,neuroprotective effect
1,CC(C)(C)OC(=O)[C@@H](N)Cc1cc(I)c(O)c(I)c1 [di-iodinated tyrosine t-butyl ester],have neuroprotective effects
2,CC(C)(C)OC(=O)[C@@H](N)Cc1ccc(O)c(I)c1 [mono-iodinated tyrosine t-butyl ester],have neuroprotective effects

# Same assay, conditions: Example 14
row,Molecule,neuroprotective activity (structure/function)
1,CCCCOc1ccc(O)cc1 [4-butoxyphenol],little or no neuroprotective activity
2,NC(Cc1cc(O)c(O)cc1O)C(=O)O (stereo not drawn) [6--OH DOPA],little or no neuroprotective activity
3,NCCc1cc(O)c(O)cc1O [6--OH dopamine],little or no neuroprotective activity
4,N[C@@H](Cc1ccc(O)c(O)c1)C(=O)O [DOPA],little or no neuroprotective activity
5,CC(C)(C)OC(=O)[C@@H](N)Cc1cc(I)c(O)c(I)c1 [di-iodinated tyrosine t-butyl ester],enhance neuroprotective effects
6,CN[C@@H](C)[C@H](O)c1ccccc1 [ephedrine],little or no neuroprotective activity
7,CC(C)(C)OC(=O)[C@@H](N)Cc1ccc(O)c(I)c1 [mono-iodinated tyrosine t-butyl ester],enhance neuroprotective effects
8,NC[C@H](O)c1ccc(O)c(O)c1 [norepinephrine],little or no neuroprotective activity
9,NCCc1ccccc1 [phenethylamine],little or no neuroprotective activity
10,Nc1ccccc1N [phenylenediamine],little or no neuroprotective activity
11,Oc1cccc(O)c1 [resorcinol],little or no neuroprotective activity
12,NC(=O)[C@@H](N)Cc1ccc(O)cc1 [tyrosinamide],little or no neuroprotective activity
13,C=CCOC(=O)[C@@H](N)Cc1ccc(O)cc1 [tyrosine allyl ester],enhance neuroprotective effects
14,CCOC(=O)[C@@H](N)Cc1ccc(O)cc1 [tyrosine ethyl ester],little or no neuroprotective activity
15,NNC(=O)[C@@H](N)Cc1ccc(O)cc1 [tyrosine hydrazide],little or no neuroprotective activity
16,COC(=O)[C@@H](N)Cc1ccc(O)cc1 [tyrosine methyl ester],little or no neuroprotective activity
17,N[C@@H](Cc1ccc(O)cc1)C(=O)Nc1ccc2ccccc2c1 [tyrosine β-naphthylamide],enhance neuroprotective effects
18,N[C@@H](Cc1ccc(O)cc1)C(=O)O [tyrosine],little or no neuroprotective activity
